The values below come from PubChem BioAssay AID588376 (Sanford-Burnham Center for Chemical Genomics, 2011).

Activity calls are given as the source filed them. How the calls were made is not given here.

Bcl-2-related protein A1 (Mus musculus), sequence (Q07440 whole entry, looked up): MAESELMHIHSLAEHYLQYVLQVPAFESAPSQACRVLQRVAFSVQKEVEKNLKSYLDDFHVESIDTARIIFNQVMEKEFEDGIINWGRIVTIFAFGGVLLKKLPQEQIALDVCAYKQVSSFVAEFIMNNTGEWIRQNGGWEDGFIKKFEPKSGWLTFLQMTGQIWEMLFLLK

This experiment has as its target Bcl-2-related protein A1 (Mus musculus) (UniProt Q07440). As to the kind of experiment: off-target activity on mouse Bfl-1 – biochemical, set 2, counter-screen for UBC13 polyubiquitination inhibitor project, SAR follow-up (AID 588376). As to conditions: Bfl-1 biochemical counterscreen, dose response.
A word on the IC50: it is the point on the concentration scale where inhibition reaches its midpoint. Regarding `CCOc1ccc(NC(=O)CN2CCC(n3cnc4cc(F)ccc43)CC2)cc1`, the IC50 is > 100 µM (inactive). In the case of `COc1ccc(OC)c(NC(=O)CN2CCC(n3cnc4cc(F)ccc43)CC2)c1`, the IC50 is > 100 µM (inactive). As for `CC1(C)Cc2c(sc(NC(=O)C(=O)NCCN3CCOCC3)c2C(N)=O)CO1`, the figure is > 100 µM (inactive); as for `O=C(C1CCN(c2ncnc3c2nc2n3CCCCC2)CC1)N1CCN(c2ncccn2)CC1`, > 100 µM (inactive). For `O=C(C1CCN(c2ncnc3c2nc2n3CCCCC2)CC1)N1CCN(c2ccc(F)cc2)CC1`, the IC50 is > 100 µM (inactive). As for `Cc1nc2ccccc2n1C1CCN(CC(=O)Nc2ccccc2Oc2ccccc2)CC1`, the figure is > 100 µM (inactive); as for `O=C(CN1CCC(n2cnc3cc(F)ccc32)CC1)Nc1ccccc1Br`, > 100 µM (inactive). As for `O=C(CN1CCC(n2c(C(F)(F)F)nc3cc(F)ccc32)CC1)Nc1ccc2c(c1)OCO2`, the figure is > 100 µM (inactive). As for `Cc1nc2cc(F)ccc2n1C1CCN(CC(=O)Nc2ccccc2)CC1`, the figure is > 100 µM (inactive); as for `O=C(NCCCN1CCN(c2ccc(F)cc2)CC1)C1CCCN(c2ncnc3c2nc2n3CCCCC2)C1` (configuration not stated), > 100 µM (inactive). Take `O=C(C1CCN(c2ncnc3c2nc2n3CCCCC2)CC1)N1CCN(Cc2ccccc2)CC1`: the IC50 is > 100 µM (inactive). Next, `COc1ccc(NC(=O)CN2CCC(n3c(C)nc4cc(F)ccc43)CC2)c(OC)c1`: > 100 µM (inactive); `COc1ccccc1N1CCN(CCCNC(=O)C2CCCN(c3ncnc4c3nc3n4CCCCC3)C2)CC1` (configuration not stated): > 100 µM (inactive); `Cc1ccc(C)c(N2CCN(CCCNC(=O)C3CCCN(c4ncnc5c4nc4n5CCCCC4)C3)CC2)c1` (configuration not stated): > 100 µM (inactive).

As for `O=C(NCCCN1CCN(c2ccccc2)CC1)C1CCCN(c2ncnc3c2nc2n3CCCCC2)C1` (configuration not stated), the IC50 was > 100 µM (inactive).

For `CCOc1ccccc1NC(=O)CN1CCC(n2cnc3cc(F)ccc32)CC1`, the IC50 was > 100 µM (inactive). Next, `CC1(C)Cc2c(sc(NC(=O)C(=O)N3CCCC3)c2C(N)=O)CO1`: > 100 µM (inactive); `O=C(CN1CCC(n2cnc3cc(F)ccc32)CC1)Nc1cccc(C(F)(F)F)c1`: > 100 µM (inactive); `O=C(c1ccco1)N1CCN(C(=O)C2CCN(c3ncnc4c3nc3n4CCCCC3)CC2)CC1`: > 100 µM (inactive). As for `Cc1cccc(NC(=O)CN2CCC(n3cnc4cc(F)ccc43)CC2)c1C`, the IC50 is > 100 µM (inactive). For the compound `CC1(C)Cc2c(sc(NC(=O)C(=O)NCC3CCCO3)c2C(N)=O)CO1` (configuration not stated), the IC50 was > 100 µM (inactive).

For the compound `COC(=O)c1c(NC(=O)C(=O)NCC2CCCO2)sc2c1CC(C)(C)OC2` (configuration not stated), the IC50 was > 100 µM (inactive).

With `Cc1cccc(N2CCN(CCCNC(=O)C3CCCN(c4ncnc5c4nc4n5CCCCC4)C3)CC2C)c1` (configuration not stated), the IC50 was > 100 µM (inactive). Consider `O=C(C1CCN(c2ncnc3c2nc2n3CCCCC2)CC1)N1CCN(c2ccccn2)CC1`, for which the IC50 is > 100 µM (inactive). As for `O=C(CN1CCC(n2cnc3cc(C(F)(F)F)ccc32)CC1)Nc1ccc2c(c1)OCCO2`, the IC50 is > 100 µM (inactive). For the compound `COc1ccc(OC)c(NC(=O)CN2CCC(n3c(C)nc4cc(F)ccc43)CC2)c1`, the IC50 was > 100 µM (inactive). As for `CC1(C)Cc2c(sc(NC(=O)C(=O)NCC3CCCO3)c2C(=O)O)CO1` (configuration not stated), the figure is > 100 µM (inactive).
